This is an account of results in patent publication US10073103B1, “Rapid measurement of total vitamin D in blood” (Theranos, Inc., priority 2013, dated 2018).

Read-outs that look alike come from different tables or passages of the source.

In series [1] the test system is antibody to 25-hydroxy vitamin D. Particulars: as stated in the manufacturer's product insert; cited from earlier work.
Series [2] relates to antivitamin-D coated microparticles. The arrangement: concentration or dose not given beside the values. Particulars: as stated in the manufacturer's product insert; cited from earlier work.
Series [3] has as its system anti-25-hydroxy vitamin D antibodies (Ab5H10 and Ab2F4). The series can be described thus: Cross-reactivity test of the present competitive chemiluminescent ELISA in low BSA buffer. The series is classed as binding, sheep. The following applies: for Cross reactivity as potentially interfering compound (in words): final assay conditions. On the procedure: The liquid phase of the assay reaction included the sample (mixed with the sample diluent) and included the anti-vitamin-D antibodies and the alkaline phosphatase (AP) conjugate. As discussed below, in many cases mixtures of two types of anti-vitamin D antibodies were used. For example, in many cases, the anti-vitamin-D antibodies Ab5H10 and Ab2F4 were mixed into the diluted sample (final concentrations 10 ng/mL Ab5H10 and 5 ng/mL Ab2F4), and then the AP conjugate was mixed into the solution that included the sample, the sample diluent, and the anti-vitamin-D antibodies. This liquid mixture was incubated with the capture surface (anti-sheep antibody bound to UltraAvidin™-coated polystyrene).
Vitamin D assay methods using pepsin degradation of vitamin D binding proteins at low pH were then further optimized in subsequent experiments, including experiments performed at an operating temperature of 34° C. […] This sample treatment and assay protocol consisted of a 1:5 dilution of the sample into 10 mg/mL pepsin in 100 mM citrate buffer pH 2.6, followed by a 1:8 dilution into 50 mM TRIS pH 8.0 which brought the pH of the diluted sample to 8.0 and neutralized the pepsin. Then the sheep anti-25-hydroxy vitamin D antibody was added and incubated with the sample for 10 minutes. Following addition of the anti-25-hydroxy vitamin D antibody, the 25-hydroxy vitamin D-AP conjugate was added, resulting in a final sample dilution of 1:50. The mixture was then incubated on the anti-sheep capture surface for 5 minutes, followed by a wash and 5 minute substrate incubation.
1. Sample was diluted 1:5 into 100 mM Citrate buffer pH 2.6 containing 10 mg/mL pepsin and mixed (final pH 3.9) for 5 minutes at 34° C.
2. Treated sample was diluted a further 1:8 into 50 mM TRIS buffer pH 8.0 to permanently deactivate the pepsin, and anti-25-hydroxy vitamin D antibody in a blocking buffer was spiked in and mixed. This mixture was incubated for 10 minutes.
3. The AP-labeled 25-hydroxy vitamin D was added to the sample mixture and then transferred to the capture surface (biotinylated anti-sheep secondary antibody bound to UltraAvidin™-coated polystyrene) and incubated for 5 minutes.
4. The surface was washed six times (1 minute for each wash cycle) with 0.05% Tween20® in 50 mM TBS containing 0.05% sodium azide at pH8.0.
5. The washed capture surface was exposed to enzyme substrate for five minutes and the chemiluminescence was read in an automated luminometer.
Tests were performed in order to determine whether non-target compounds could interfere with the assay results. Such tests, termed “cross-reactivity tests”, measured the change in measured 25-hydroxy vitamin D due to the presence of a non-target substance by comparing the value of 25-hydroxy vitamin D measured by the present methods where a potentially interfering compound was in the sample, as compared to the value of 25-hydroxy vitamin D measured by the present methods in the absence of the potentially interfering compound. Cross reactivity testing was conducted using the final assay conditions in a low BSA buffer matrix (0.03% BSA in TBS). Cross-reactivity was reported in these assays as % recovery=100×([measured vitamin D])/([nominal vitamin D]); [measured vitamin D] is the 25-hydroxy vitamin D concentration measured in the presence of the potentially interfering compound, and [nominal vitamin D] is the 25-hydroxy vitamin D concentration measured in the absence of the potentially interfering compound. […] (Note that an interfering compound would displace labeled 25-hydroxy vitamin D in the competition assays disclosed herein, so that the interfering compound would cause an apparent (erroneous) increase in the measured 25-hydroxy vitamin D.) For comparison, values for 25-hydroxy vitamin D3 (a direct target of the assay, and not a cross-reactant) are presented in the table.
For orientation: ELISA stands for enzyme-linked immunosorbent assay.

For series [4] the following is noted: as stated in the manufacturer's product insert; cited from earlier work.
For series [5] the following is noted: as stated in the manufacturer's product insert, b197 cites literature, cited from earlier work.
A short description of series [6]: Reagent stability: lyophilized pepsin versus frozen aliquots, compared by vitamin D results on clinical samples. Particulars: 10 mg/mL, reconstituted with 100 mM citrate buffer pH 2.6. The method, then: The stability of pepsin in frozen aliquots of aqueous pepsin solution and of dry, lyophilized pepsin (e.g., a lyophilized powder formed from an aqueous pepsin solution) was measured. Pepsin was lyophilized in containers suitable for use when reconstituted, e.g., in an automated assay device. The pepsin was provided in a solution at a concentration of 10 mg/mL and was lyophilized into the containers to obtain the final reconstituted amount and concentration equal to the concentration and amounts used in the assay methods disclosed herein. The containers of lyophilized reagent were placed into cartridges (arrays including several such containers) and the reagent was reconstituted with 100 mM citrate buffer (pH 2.6). Clinical samples were used for comparison, and the vitamin D results were calculated for both conditions based on the standard curve obtained for frozen pepsin/buffer aliquots.

The mark [7] stands for this setting: test substance 50 ng/mL, OORL = out of range - low, below the detection limit.
The mark [8] stands for this setting: test substance 50 ng/mL, low BSA buffer.
Where [9] appears, read: test substance 100 ng/mL, OORL = out of range - low, below the detection limit.
Setting [10] is: test substance 100 ng/mL, low BSA buffer.
Setting [11] is: test substance 150 ng/mL, OORL = out of range - low, below the detection limit.
Where [12] appears, read: test substance 150 ng/mL, low BSA buffer (0.03% BSA in TBS).

For `C=C1/C(=C\C=C2/CCC[C@]3(C)[C@@H]([C@H](C)/C=C/[C@H](C)C(C)(C)O)CC[C@@H]23)C[C@@H](O)C[C@@H]1O` [1.25(OH)2 D2, 1,25-dihydroxy vitamin D2], the “Vitamin D metabolite cross reactivity, DiaSorin 25-Hydroxyvitamin D 125I RIA” value in series [1] is given as 11%. In addition, the “Vitamin D metabolite cross reactivity, DiaSorin Liaison 25 OH Vitamin D TOTAL” value in series [2] was 40%.

On to `C=C1/C(=C\C=C2/CCC[C@]3(C)[C@@H]([C@H](C)CCCC(C)(C)O)CC[C@@H]23)C[C@@H](O)C[C@@H]1O` [1α,25-Dihydroxy Vitamin D3, 1α,25-dihydroxy vitamin D3], for which the “Vitamin D metabolite cross reactivity, DiaSorin 25-Hydroxyvitamin D 125I RIA” value in series [1] is given as 11%. For the same molecule, in series [2], the “Vitamin D metabolite cross reactivity, DiaSorin Liaison 25 OH Vitamin D TOTAL” value is given as 17%. Further, the “Vitamin D metabolite cross reactivity, Present Methods” value in series [3] turned out to be 70%. Further, the “Cross reactivity as potentially interfering compound (in words)” value (from here on “Cross reactivity … (in words)”) in series [3] (low BSA buffer) is “Some cross reactivity”. Besides, the “% Recovery” value was 73% in series [3] (test substance 50 ng/mL), 61% in series [3] (test substance 100 ng/mL) and 71% in series [3] (test substance 150 ng/mL). In addition, the “Conc., ng/mL Mean (measured 25-hydroxy vitamin D)” value (shortened to “Conc., ng/mL Mean”) in series [3] (setting [7]) is listed as 36.5 ng/mL; in series [3] (setting [9]), 60.6 ng/mL; in series [3] (setting [11]) it was 107.1 ng/mL. Further, the “Signal, RLU Mean” value in series [3] (setting [8]) is 7804 RLU; in series [3] (setting [10]), 3642 RLU; in series [3] (setting [12]) it was 2352 RLU. Further, in series [4], the “Vitamin D metabolite cross reactivity, Roche Vitamin D3 (25-OH)” value is “up to 100%”.

On to `C=C1CCC(O)C/C1=C\C=C1\CCCC2(C)C1CCC2C(C)CCC(O)C(C)(C)O` (stereo not drawn) [24,25-Dihydroxy Vitamin D3, 24,25-dihydroxy vitamin D3], for which the “Vitamin D metabolite cross reactivity, IDS ELISA kit” value in series [5] is more than 100%. Further, the “Cross reactivity … (in words)” value in series [3] (low BSA buffer) was “No cross reactivity”. The “Conc., ng/mL Mean” value in series [3] (setting [7]), in series [3] (setting [9]) and in series [3] (setting [11]) was “OORL” in each case. Moreover, the “Signal, RLU Mean” value in series [3] (setting [8]) amounted to 25059 RLU; in series [3] (setting [10]), 23735 RLU; in series [3] (setting [12]), 22992 RLU.

As for `C=C1CC[C@H](O)C/C1=C/C=C1\CCC[C@]2(C)[C@@H]([C@H](C)/C=C/[C@H](C)C(C)(C)O)CC[C@@H]12` [25(OH) D2, 25-hydroxy vitamin D2], the “Vitamin D metabolite cross reactivity, DiaSorin 25-Hydroxyvitamin D 125I RIA” value in series [1] is reported as 100%. In addition, in series [2], the “Vitamin D metabolite cross reactivity, DiaSorin Liaison 25 OH Vitamin D TOTAL” value is listed as 104%. In addition, the “Vitamin D metabolite cross reactivity, IDS ELISA kit” value in series [5] and in series [5] (listed as 25-hydroxy Vitamin D2) was 75% each time. Also, the “Vitamin D metabolite cross reactivity, Present Methods” value in series [3] was 110%. Besides, the “Vitamin D metabolite cross reactivity, Roche Vitamin D3 (25-OH)” value in series [4] is listed as less than 10%.

Regarding `C=C1CC[C@H](O)C/C1=C/C=C1\CCC[C@]2(C)[C@@H]([C@H](C)CCCC(C)(C)O)CC[C@@H]12` [25-Hydroxy vitamin D3, 25-hydroxy vitamin D3], the “Vitamin D metabolite cross reactivity, DiaSorin 25-Hydroxyvitamin D 125I RIA” value in series [1] was 100%. Besides, the “Vitamin D metabolite cross reactivity, DiaSorin Liaison 25 OH Vitamin D TOTAL” value in series [2] was 100%. Further, the “Vitamin D metabolite cross reactivity, IDS ELISA kit” value in series [5] was 100%. The “Vitamin D metabolite cross reactivity, Present Methods” value in series [3] is 100%. Also, the “% Recovery” value in series [3] (test substance 10 ng/mL) is 110%; in series [3] (test substance 25 ng/mL), 83%; in series [3] (test substance 50 ng/mL), 111%; in series [3] (test substance 100 ng/mL), 77%; in series [3] (test substance 150 ng/mL), 70%. The “Conc., ng/mL Mean” value in series [3] (test substance 10 ng/mL) is reported as 11.0 ng/mL; in series [3] (test substance 25 ng/mL), 20.8 ng/mL; in series [3] (setting [7]), 55.5 ng/mL; in series [3] (setting [9]), 76.5 ng/mL; in series [3] (setting [11]), 104.5 ng/mL. Also, the “Signal, RLU Mean” value in series [3] (test substance 10 ng/mL, low BSA buffer) turned out to be 20071 RLU; in series [3] (test substance 25 ng/mL, low BSA buffer) it was 14076 RLU; in series [3] (setting [8]) it was 4044 RLU; in series [3] (setting [10]), 2941 RLU; in series [3] (setting [12]) it was 2432 RLU. Besides, the “Vitamin D metabolite cross reactivity, Roche Vitamin D3 (25-OH)” value in series [4] was 100%.

As to `C=C1CC[C@H](O)C/C1=C/C=C1\CCC[C@]2(C)[C@@H]([C@H](C)CCCC(C)C)CC[C@@H]12` [Cholecalciferol (Vitamin D3), cholecalciferol], in series [1], the “Vitamin D metabolite cross reactivity, DiaSorin 25-Hydroxyvitamin D 125I RIA” value is reported as 0.8%. For the same molecule, in series [2], the “Vitamin D metabolite cross reactivity, DiaSorin Liaison 25 OH Vitamin D TOTAL” value is on record as less than 1%. Besides, the “Vitamin D metabolite cross reactivity, IDS ELISA kit” value in series [5] was less than 0.01%. The “Vitamin D metabolite cross reactivity, Present Methods” value in series [3] was less than 0.01%. Besides, the “Cross reactivity … (in words)” value in series [3] (low BSA buffer) is “No cross reactivity”. The “Conc., ng/mL Mean” value in series [3] (setting [7]), in series [3] (setting [9]) and in series [3] (setting [11]) was “OORL” in each case. In addition, the “Signal, RLU Mean” value in series [3] (setting [8]) was 31046 RLU; in series [3] (setting [10]), 30864 RLU; in series [3] (setting [12]), 31607 RLU. The “Vitamin D metabolite cross reactivity, Roche Vitamin D3 (25-OH)” value in series [4] is given as less than 1%.

For `C=C1CC[C@H](O)C/C1=C/C=C1\CCC[C@]2(C)[C@@H]([C@H](C)/C=C/[C@H](C)C(C)C)CC[C@@H]12` [Ergocalciferol (Vitamin D2), ergocalciferol], the “Vitamin D metabolite cross reactivity, DiaSorin 25-Hydroxyvitamin D 125I RIA” value in series [1] was 0.8%. Moreover, the “Vitamin D metabolite cross reactivity, DiaSorin Liaison 25 OH Vitamin D TOTAL” value in series [2] is recorded as less than 1%. Further, the “Vitamin D metabolite cross reactivity, IDS ELISA kit” value in series [5] is less than 0.3%. The “Vitamin D metabolite cross reactivity, Present Methods” value in series [3] is given as less than 0.01%. The “Cross reactivity … (in words)” value in series [3] (low BSA buffer) is on record as “No cross reactivity”. The “Conc., ng/mL Mean” value in series [3] (setting [7]), in series [3] (setting [9]) and in series [3] (setting [11]) was “OORL” in each case. Further, the results for the “Signal, RLU Mean” value in series [3] (setting [8]), in series [3] (setting [10]) and in series [3] (setting [12]) were 30040 RLU, 27040 RLU and 30935 RLU, respectively. Also, in series [4], the “Vitamin D metabolite cross reactivity, Roche Vitamin D3 (25-OH)” value is less than 1%.

Consider “pepsin: porcine gastric mucosa pepsin (Sigma catalog # P7000)”, for which, in series [6], the “Stability: results with lyophilized reagent versus (thawed) frozen aliquot” value was “no significant differences”.
